The results in this text go back to patent US8889156B2, “Calcium-binding agents induce hair growth and/or nail growth” (priority 2009, dated 2014).

Entries after “also recorded” stand apart in the source; their conditions may differ.

The nature of test [1]: DSS-mediated remineralization of demineralized tooth surfaces with Quell Desensitizer (SEM). Further details: species or system human. The conditions noted are these: peptide pretreatment 1 h, then Quell Desensitizer 15 min. How it is done: Adult human molars, extracted during normal clinical practice, were sagittally sectioned (Accutom-50, Copenhagen, Denmark; CA-231 diamond blade) and demineralized with 19% ethylenediaminotetraacetic acid (EDTA) gel for 1 h, followed by immersion in deionized water and ultrasonication to remove debris. Samples were treated with either 12.5 p.M 8DSS (SEQ ID NO:33) peptide in 50 mM HEPES buffer (pH 7.0) or buffer alone (no peptide) or were left untreated for 1 h prior to remineralization with Quell Desensitizer (Pentron Technologies, Wallingford, Conn.), a remineralization solution consisting of aqueous solutions of calcium chloride and potassium phosphate, for 15 min. Samples were rinsed thoroughly prior to imaging by scanning electron microscopy. Having established that (DSS)n-containing peptides can bind to the dentin surface and that immobilized peptides could cause the accretion of calcium phosphate, we sought to determine whether these peptides could be used to recruit calcium phosphate to the dentin surface. Demineralized sections of extracted human teeth were treated with 8DSS (SEQ ID NO:33) peptide and then subjected to remineralization with Quell Desensitizer (Pentron Technologies), a commercially available remineralization product consisting of aqueous solutions of calcium chloride and potassium phosphate.

The nature of test [2]: Binding of labeled peptides to carious lesions in teeth (CLSM). Further details: species or system human. The note with it: labeled peptide, settings optimized per sample. From the text:
Sections of human teeth containing obvious carious lesions, which consist of demineralized enamel, were polished and exposed to 5(6)-carboxyfluorescein-labeled DSS peptides and variants. The sections were washed extensively and imaged by CLSM using blue laser illumination (A=488 nm) and a FITC emission filter, with microscope and camera settings adjusted for each sample to optimize the signal detected from each peptide. The images were examined to identify the relative levels of peptide binding in healthy versus carious tissue. […] Given their ability to remineralize at sites of enamel degradation, they can also be used to initiate remineralization at sites of enamel degradation such as caries or injury sites without causing inappropriate nucleation on healthy tissue surfaces.

Test [3] in a line: Nucleation of hydroxyapatite on tooth enamel (SBFn/SBFg, SEM). The conditions noted are these: demineralized enamel, 12.5 μM peptide. Set-up: species or system human. How it is done: (§1) To determine whether applying DSS to various preparations of tissue promoted HA nucleation, that could ultimately lead to tissue remineralization, sagittally sectioned adult human teeth (obtained after extraction during normal clinical practice) were polished using a Streurs grinding wheel, and prepared for nucleation experiments. Half of the sections were demineralized with 35% phosphoric acid for 15 minutes, then rinsed thoroughly with deionized water. The other half were left untreated. All samples were then sonicated for five minutes to remove excess debris left from cutting and grinding and/or demineralization. Samples were treated with 12.5 μM 8DSS dissolved in 50 mM HEPES buffer solution (pH 7.0), buffer solution only, or left untreated. Samples were then immersed into a simulated body fluid (SBFn), meant to accelerate nucleation of hydroxyapatite (HA) crystals, for 4 hours. Following the nucleation step, samples were immersed in a magnesium and bicarbonate free solution (SBFg) in order to allow the nucleated HA crystals to grow. […] Both solutions were adjusted to pH 6.8. Crystals were grown in order to amplify the nucleated crystals for easy visualization by SEM.

Test [4] in a line: Binding of labeled peptide to sagittally sectioned adult human molars (CLSM, Example 6). The note with it: fluorescein-labeled peptide, 10 min. How it is done:
For binding experiments, sagittally sectioned adult human molars were incubated for 10 min in a solution of 12.5 p.M 5(6)-carboxyfluorescein-labeled 6DSS (SEQ ID NO:32) peptide containing 10 mM NaCl and 50 mM HEPES, pH 7.0. Control samples were prepared without peptide. Samples were rinsed after treatment and imaged by confocal laser scanning microscopy (CLSM) with illumination by a blue Kr/Ar laser (λ=488 nm) and a FITC emission filter. To test binding of DSS-containing peptides to biological tissue, sagittally sectioned human teeth were incubated treated with 6DSS (SEQ ID NO:32) (control samples were prepared without peptide), washed, and imaged by CLSM.

Test [5] can be described thus: HA binding assay (pulldown of fluorescein-labeled peptides, Langmuir isotherm fit). The conditions noted are these: fit of Langmuir equation. Here is the method:
Fluorescein-labeled DSS-containing peptides of various lengths were subjected to pulldown assays as follows: Samples containing varying concentrations of fluorescein-labeled peptide (0-100 μM) and a fixed amount (0.3 mg) of HA nanocrystals with a specific surface area of 100 m^2/g (Berkeley Advanced Biomaterials, Berkeley, Calif.) were prepared. Measurements were taken of the absorbance of the labeled peptide at 488 nm (the peak absorbance of the fluorescein label) before and after exposure to the HA. The amount of peptide bound was calculated by comparing the ratio of the final (Af) and initial (Ai) absorbances to the initial concentration (C0) [Cbound=(Af/Ai)C0]. Plots were generated of the amount of peptide bound per meter squared of HA surface area vs. concentration of unbound peptide at equilibrium. The resulting isotherms were fit to the Langmuir isotherm, x/m=(KANmaxCeq)/(1+KACeq), where x/m represents the molar amount of peptide bound per unit of HA surface area, KA is the affinity constant of the peptide for the HA surface (L/Mol), Nmax is the maximum surface concentration (mol/m^2), and Ceq is the molar concentration of unbound peptide at equilibrium (Calis et al. (1995) Pharm Res., 12: 1072-1076).
In order to quantitatively assess the strength of the DSS-HA interaction as well as to determine the roles of peptide length and sequence on binding, fluorescein-labeled, DSS-containing peptides of various lengths were subjected to pulldown assays as described in “Materials and Methods.”
The experimental data were fit to the Langmuir isotherm, which describes the binding of molecules to surfaces with the conditions that (1) all binding sites have the same affinity for the peptide and (2) the peptide will form a monolayer on the surface but cannot accumulate to higher levels (Atkins (1994) Physical chemistry. Freeman, New York). The excellent fit of the Langmuir isotherm to the experimental data validates these conditions, and the constants obtained from this analysis were used for comparisons between peptides. As shown in FIG. 7A and summarized in Table 6, both the binding affinity (KA) and the monolayer concentration (NMax) of the various peptides increased with the number of DSS repeats per peptide. Additionally, several variant peptides were tested (FIGS. 7B, 7C, Table 6): a peptide containing a longer side chain at the first position (4ESS (SEQ ID NO:34)), peptides containing a more sterically hindered hydroxyl group at the second and third positions (4DTT (SEQ ID NO:36), 4NTT (SEQ ID NO:38), 4ETT (SEQ ID NO:37)), peptides lacking a charged group at the first position (4NSS (SEQ ID NO:35), 8ASS (SEQ ID NO:26)), and peptides lacking hydroxyl groups at the second and third positions (DAA-8 (SEQ ID NO:40), 8NAA (SEQ ID NO:41)).

The nature of test [6]: Nucleation of hydroxyapatite on tooth dentin (SBFn/SBFg, SEM). Further details: species or system human. The note with it: nondemineralized dentin, 12.5 μM peptide. How it is done: as §1

Regarding “DSS DSS DSSDSS DSS DSS DSS DSS (DSSDSSDSSDSSDSSDSSDSSDSS; synthetic calcium-binding peptide 8DSS)”, the “mineral accumulation on demineralized dentin” value in test [1] was “accumulated a continuous layer of calcium phosphate precipitate; also recorded: markedly enhanced the effectiveness of a commercially available remineralization product”. Also, in test [2], the “specificity of binding to carious lesions versus healthy enamel” value is given as “highly specific binding to carious lesions” and the “strength of staining of carious lesions” value was “exceptionally strong staining of carious lesions”. Besides, the “crystal growth (nucleation) on enamel” value in test [3] was “significant crystal growth”. In addition, in test [4], the binding to dentin entry was “binds tightly to the dentin” and the binding to enamel entry is “binding to the enamel almost completely absent”. Besides, the “Nmax (maximum monolayer surface concentration)” value in test [5] is given as 8.2 × 10^−8 ± 6 × 10^−9 mol/m^2. Besides, in test [5] (fluorescein-labeled peptide 0-100 μM, 0.3 mg HA nanocrystals), the “KA (binding affinity for HA)” value is given as 290,000 ± 70,000 M^−1. In addition, the “crystal growth (nucleation) on dentin” value in test [6] is “the most significant growth”.
